Laboratory results reported in patent US6960591B2, “Propane-1,3-dione derivative” (Yamanouchi Pharmaceutical Co., Ltd., priority 2000, dated 2005).
Where a name gives a salt, the structure may show the parent alone.

Target: T1, human GnRH receptor (Homo sapiens, UniProt P30968)
T1 construct: expressed in transfected cells; membrane fraction
T1 sequence (P30968 1-328): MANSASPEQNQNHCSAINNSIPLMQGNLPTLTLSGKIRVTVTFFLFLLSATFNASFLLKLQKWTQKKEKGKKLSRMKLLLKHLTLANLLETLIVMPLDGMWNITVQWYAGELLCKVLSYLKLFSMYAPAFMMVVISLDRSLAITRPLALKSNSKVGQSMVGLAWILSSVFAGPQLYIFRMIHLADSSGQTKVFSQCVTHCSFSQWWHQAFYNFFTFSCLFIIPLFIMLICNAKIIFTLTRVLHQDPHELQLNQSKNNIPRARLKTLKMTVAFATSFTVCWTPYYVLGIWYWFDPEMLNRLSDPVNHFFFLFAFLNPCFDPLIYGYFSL
Assay: Test of in vitro GnRH receptor antagonism: 125I-D-Trp6-LHRH binding inhibition
Conditions: inhibition of 0.1 nM 125I-D-Trp6-LHRH binding; membrane fractions of CHO cells expressing human GnRH receptor; 4° C. for 3 hours; read-out: IC50 value (concentration at which PMB equals 50%)
Protocol: In the following, in vitro GnRH receptor antagonistic effect of the pharmaceutical drugs and compounds of the invention was evaluated by inhibition of binding of ^125I-D-Trp^6-LHRH to human GnRH receptor.
1. Test of In Vitro GnRH Receptor Antagonism
(1) Preparation of Human GnRH Receptor-Expressing CHO (Chinese Hamster Ovary) Cells
Expression of human […] was carried out in a similar manner to a common method for protein expression (Chapter 9 In: Current Protocols In Molecular Biology: ed. by F. M. Ausubel et al., Greene Publishing Associates and Wiley-Interscience, 9.0.1-9.9.6 (1987), S. S. Kaker et al., Biol. Biophys. Res. Commun. 189, 289-295 (1992), R. Grosse et al., Mol. Endocrinol. 11, 1305-1318 (1997)). CHO cells were cultured (medium: αMEM, 10% FCS, containing an antibiotic-antimycotic agent) with an expression vector which has human GnRH receptor gene (SEQ ID No.: 1) and a transfection reagent FuGENE6 (manufactured by Boehringer-Mannheim) for 24 hours for transfection, whereby the CHO cells stably expressing human GnRH receptor (SEQ ID No.: 2, S. S. Kaker et al., Biol. Biophys. Res. Commun, 189, 289-295 (1992)) were obtained. The expression of the aimed receptor was confirmed by PCR method.
(2) Preparation of CHO Cell Membrane Fraction Containing Human GnRH Receptor
The CHO cells expressing the human GnRH receptor (3×10^8 cells), prepared in the above (1), were suspended in phosphate buffered saline (PBS) and centrifuged for 3 minutes at 100×G. The pellet suspended in 100 ml of a homogenate buffer (10 mM NaHCO3, 5 mM EDTA (ethylenediaminetetraacetic acid), pH 7.5) was homogenized using a Polytron homogenizer. After the resulting homogenate was centrifuged for 15 minutes at 400×G, the supernatant was centrifuged for 1 hour at 100,000×G. The membrane fraction obtained as a pellet was suspended in 60 ml of storage buffer (25 mM Tris-HCl, 1 mM EDTA, 10 μg/ml a protease inhibitor (Pefabloc SC (manufactured by Merck)), 1 μg/ml pepstatin A, 20 μg/ml leupeptin, 0.03% sodium azide, pH 7.5), and stored at −80° C. until use. […]
The membrane fractions of CHO cells expressing the human GnRH receptor which were prepared in the above (2) were diluted with assay buffer (HBSS (Hanks balanced salt solution), 20 mM HEPES, 0.1% BSA (bovine serum albumin), 100 μg/ml bacitracin, pH 7.4) so as to be 20 μg/tube, and were dispensed into tubes in an amount of 148 μl. […] The filters were washed three times with 1 ml of assay buffer and the radioactivity on the filter was measured using a γ-counter. Binding inhibition (%) (PMB) of each test compound at various concentrations were determined according to the following equation: PMB=(SB−NSB)/(TB−NSB)×100 (wherein TB: total binding radioactivity, SB: radioactivity when a test compound was added, NSB: non-specific binding radioactivity). […]

SMILES | IC50 [nM]
O=C(C(C(=O)c1cccc(NCc2c[nH]cn2)c1)=C1Nc2ccccc2N1)c1cc(F)cc(F)c1 [Example 83, 1-(3,5-difluorophenyl)-2-(1,3-dihydro-2H-benzimidazol-2-ylidene)-3-{3-[(1H-imidazol-4-ylmethyl)amino]phenyl}propane-1,3-dione hydrochloride] | 0.1 to 1
O=C(C(C(=O)c1cc(F)cc(F)c1)=C1Nc2ccc(OCc3cccnc3)cc2N1)c1ccccc1 [Example 402, 1-(3,5-difluorophenyl)-2-[5-(pyridin-3-ylmethoxy)-1,3-dihydro-2H-benzimidazol-2-ylidene]-3-phenylpropane-1,3-dione oxalate] | 0.1 to 1
O=C(C(C(=O)c1cccc(CNCCc2ccncc2)c1)=C1Nc2ccccc2N1)c1ccccc1 [Example 79, 2-(1,3-dihydro-2H-benzimidazol-2-ylidene)-1-phenyl-3-(3-{[(2-pyridin-4-ylethyl)amino]methyl}phenyl)propane-1,3-dione hydrochloride] | 0.1 to 1
Nc1cccc(C(=O)C(C(=O)c2cc(F)cc(F)c2)=C2Nc3ccccc3N2)c1 [Example 40, 1-(3-aminophenyl)-3-(3,5-difluorophenyl)-2-(1,3-dihydro-2H-benzimidazol-2-ylidene)propane-1,3-dione hydrochloride] | 0.1 to 1
